Source: ChEMBL document CHEMBL1128647, “Novel open-ring analogues of N5,N10-methylenetetrahydrofolic acid with selective activity against brain tumor” (1995)

Legend:
Type in all cases: functional
[1] = tested on: Breast cancer cell line; assay: Cytotoxic activity against human breast cancer cell line
[2] = tested on: Ovarian cancer cell line; assay: Cytotoxic activity against human ovarian cancer cell line
[3] = tested on: Lung cancer cell line; assay: Cytotoxic activity against human lung cancer cell line
[4] = tested on: Colon cancer cell line; assay: Cytotoxic activity against human colon cancer cell line
[5] = tested on: Renal cancer cell line; assay: Cytotoxic activity against human renal cancer cell line
[6] = tested on: Prostatic carcinoma cell; assay: Cytotoxic activity against human prostate cancer cell line
[7] = tested on: SNB-75; assay: Cytotoxic activity against human CNS SNB-75 cancer cell line
[8] = tested on: U-251; assay: Cytotoxic activity against human CNS U251 cancer cell line

SMILES | GI50 [1] | GI50 [2] | GI50 [3] | GI50 [4] | GI50 [5] | GI50 [6] | GI50 [7] | GI50 [8]
Cc1nc(N)nc(O)c1N1CCN(c2ccc(C#N)cc2)CC1 | > 0.0001 µM | 93 µM | > 100 µM | > 0.0001 µM | > 100 µM | > 0.0001 µM | 40 nM | 
Cc1nc(N)nc(O)c1N1CCN(c2ccc(S(=O)(=O)N(Cc3ccccc3)Cc3ccccc3)cc2)CC1 | 2.1 µM | 0.7 µM | 4.8 µM | 55 µM | 3.1 µM | 1.9 µM |  | 3.68 µM
Cc1nc(N)nc(O)c1N1CCN(c2ccc(C(=O)O)cc2)CC1 | > 100 µM | > 100 µM | > 100 µM | > 100 µM | 1.39 µM | > 100 µM | > 100000 nM | 
Cc1nc(N)nc(O)c1N1CCN(c2ccc(S(N)(=O)=O)cc2)CC1 | > 100 µM | > 100 µM | > 0.0001 µM | > 100 µM | > 100 µM | > 100 µM | 100 nM | 
CCOC(=O)CCC(NC(=O)c1ccc(N2CCN(c3c(C)nc(N)nc3O)CC2)cc1)C(=O)OCC (centres undefined) | > 100 µM | > 0.0001 µM | > 100 µM | > 100 µM | > 100 µM | > 100 µM | < 10 nM | 
Cc1nc(N)nc(O)c1N1CCN(c2ccc(C(=O)NC(CCC(=O)O)C(=O)O)cc2)CC1 (centres undefined) | > 100 µM | > 100 µM | > 100 µM | > 100 µM | > 0.0001 µM | > 100 µM | < 10 nM | 
Cc1nc(N)nc(O)c1N1CCN(c2ccc([N+](=O)[O-])cc2)CC1 | > 100 µM | > 100 µM | > 100 µM | > 100 µM | > 100 µM | > 100 µM | < 10 nM | 
